The values below come from patent publication US9938269B2, “Inhibitor compounds of phosphodiesterase type 10A” (ABBVIE INC., priority 2011, dated 2018).

Molecules are shown by their SMILES. pIC50: −log10 of the molar value. Where a name gives a salt, the structure may show the parent alone.

T1 sequence (Q9Y233 whole entry): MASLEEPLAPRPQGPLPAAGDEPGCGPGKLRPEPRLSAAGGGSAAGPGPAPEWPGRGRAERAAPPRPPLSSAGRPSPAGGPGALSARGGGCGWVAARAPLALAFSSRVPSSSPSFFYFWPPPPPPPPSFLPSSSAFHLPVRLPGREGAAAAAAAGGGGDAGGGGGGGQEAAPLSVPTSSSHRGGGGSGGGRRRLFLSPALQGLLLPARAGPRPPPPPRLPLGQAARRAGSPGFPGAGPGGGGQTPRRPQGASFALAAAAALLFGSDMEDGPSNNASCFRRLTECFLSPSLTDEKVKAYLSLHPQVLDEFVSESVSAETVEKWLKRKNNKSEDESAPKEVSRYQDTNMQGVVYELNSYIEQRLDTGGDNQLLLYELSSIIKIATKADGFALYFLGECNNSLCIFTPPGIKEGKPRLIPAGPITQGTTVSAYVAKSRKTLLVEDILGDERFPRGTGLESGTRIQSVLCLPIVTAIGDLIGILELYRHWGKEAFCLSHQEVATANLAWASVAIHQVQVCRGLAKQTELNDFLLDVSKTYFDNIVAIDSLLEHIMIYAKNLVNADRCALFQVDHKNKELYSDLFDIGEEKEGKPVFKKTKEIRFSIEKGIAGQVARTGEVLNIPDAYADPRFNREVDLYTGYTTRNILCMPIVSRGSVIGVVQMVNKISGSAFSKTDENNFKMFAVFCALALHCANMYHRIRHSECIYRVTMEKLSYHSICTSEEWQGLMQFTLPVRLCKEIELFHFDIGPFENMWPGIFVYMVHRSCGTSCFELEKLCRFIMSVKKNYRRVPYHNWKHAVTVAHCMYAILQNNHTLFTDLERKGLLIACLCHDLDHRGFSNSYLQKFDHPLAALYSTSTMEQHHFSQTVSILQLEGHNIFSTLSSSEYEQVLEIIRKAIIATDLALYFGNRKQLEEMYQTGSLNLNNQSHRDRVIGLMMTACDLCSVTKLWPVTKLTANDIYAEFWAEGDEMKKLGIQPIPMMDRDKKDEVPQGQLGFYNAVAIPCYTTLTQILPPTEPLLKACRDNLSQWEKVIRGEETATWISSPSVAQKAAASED

The assay concerns the target T1, PDE10A (human) (Homo sapiens, UniProt Q9Y233).
T1 construct: purchased BPS Bioscience
Nature of the assay: Measurement of PDE activity (HTRF cAMP kit), human PDE10A. The assay is classed as biochemical. The note with it: PDE enzymatic reaction, substrate 20 nM for PDE10, 60 minutes at 29 C. The method, then:
The recombinant PDE proteins are used in in vitro enzymatic reaction for measurement of PDE activity. These recombinant proteins, including PDE10A (human, rat and mouse PDE10) and isoforms of PDEs 1, 3, 4, and 5, were purchased from commercial vendor BPS Bioscience. The enzymatic activity of PDEs was determined by cAMP measurement kit from CisBio (IBA) using HTRF technology.
The PDE enzymatic reaction was carried out in assay buffer (20 mM Tris-HCl pH7.5, 10 mM MgCl2, 0.1% bovine serum albumin) containing enzyme and substrate. The PDE enzymes concentration ranged from 10 pM-250 pM, depending on each enzyme's specific activity. The substrate cyclic nucleotide (cAMP or cGMP) concentration used in the assay was 20 nM for PDE10, and 100 nM for other PDEs. The inhibitory effect of compound was determined by incubating various concentration of inhibitor in the enzymatic assay. Typically, compound was serial diluted in DMSO then further diluted in assay buffer. Next, the compound at varying concentration was mixed with PDE enzyme. The reaction was initiated by addition of cyclic nucleotide substrate, and incubated for 60 minutes at 29 C. The reaction was stopped by addition of lysis buffer from assay kit. The cAMP-d2 and anti-cAMP cryptate in the lysis buffer detected the level of cAMP left from the PDE hydrolysis reaction. The PDE activity is reversely correlated with the amount of cAMP left in the reaction and can be converted to the percent activity of an uninhibited control (100%). Thus, IC50 value of inhibitor can be obtained by plotting inhibitor concentration against PDE activity at that concentration.
For orientation: In TR-FRET formats the signal depends on donor and acceptor labels being close together.
`COc1cc(-c2cccc3c2CN(CCc2ccc4ccccc4n2)C3=O)ccn1` [Example 344, 4-(2-Methoxy-pyridin-4-yl)-2-(2-quinolin-2-yl-ethyl)-2,3-dihydro-isoindol-1-one] showed a negative logarithm of the IC50 (pIC50) of 6.70 to 7.00. The value for `O=C1c2c(-c3cn[nH]c3)ccc(F)c2CN1CCc1ccc2ccccc2n1` [compound 442, 4-Fluoro-7-(1H-pyrazol-4-yl)-2-[2-(2-quinolyl)ethyl]isoindolin-1-one trifluoroacetate] was > 7.00; that for `O=C1c2c(-c3ccncc3)ccnc2CN1CCc1cn2ccsc2n1` [compound 423, 6-(2-Imidazo[2,1-b]thiazol-6-ylethyl)-4-(4-pyridyl)-7H-pyrrolo[3,4-b]pyridin-5-one trifluoroacetate] was > 7.00; that for `CC(C)n1c(CCN2Cc3cccc(-c4ccncc4)c3C2=O)nc2ccccc21` [Example 303, 2-[2-(1-Isopropyl-1H-benzoimidazol-2-yl)-ethyl]-7-pyridin-4-yl-2,3-dihydro-isoindol-1-one trifluoroacetate] was 6.70 to 7.00. The value for `O=C1c2c(-c3ccncc3)ccc(OCCF)c2CN1CCc1ccc2ccccc2n1` [compound 533, 4-(2-Fluoro-ethoxy)-7-pyridin-4-yl-2-(2-quinolin-2-yl-ethyl)-2,3-dihydro-isoindol-1-one] was > 7.00.

For the compound `COc1ccc(-c2ccc(OC)c3c2C(=O)N(CCc2ccc4ccccc4n2)C3)cc1` [Example 186, 4-Methoxy-7-(4-methoxy-phenyl)-2-(2-quinolin-2-yl-ethyl)-2,3-dihydro-isoindol-1-one], the negative-log IC50 (pIC50) is 6.70 to 7.00.

`Cc1ccsc1-c1ccnc2c1C(=O)N(CCc1ccc3ccccc3n1)C2` [Example 336, 4-(3-Methyl-thiophen-2-yl)-6-(2-quinolin-2-yl-ethyl)-6,7-dihydro-pyrrolo[3,4-b]pyridin-5-one] gave a negative logarithm of the IC50 (pIC50) of 6.70 to 7.00.

Turning to `Cc1cnccc1-c1ccnc2c1C(=O)N(CCc1ccc3ccccc3n1)C2` [Example 322, 4-(3-Methyl-pyridin-4-yl)-6-(2-quinolin-2-yl-ethyl)-6,7-dihydro-pyrrolo[3,4-b]pyridin-5-one], the negative-log IC50 (pIC50) was > 7.00. Regarding `O=C1c2c(-c3ccsc3)ccnc2CN1CCc1cn2ccccc2n1` [compound 523, 6-(2-Imidazo[1,2-a]pyridin-2-ylethyl)-4-(3-thienyl)-7H-pyrrolo[3,4-b]pyridin-5-one], the pIC50 was > 7.00. The value for `CCOC(=O)C1CCN(c2ccnc3c2C(=O)N(CCc2ccc4ccccc4n2)C3)CC1` [Example 319, 1-[5-Oxo-6-(2-quinolin-2-yl-ethyl)-6,7-dihydro-5H-pyrrolo[3,4-b]pyridin-4-yl]-piperidine-4-carboxylic acid ethyl ester] was 6.30 to 6.70; that for `O=C1c2c(cccc2-c2ccnc(Cl)c2)CN1CCc1ccc2ccccc2n1` [Example 171, 7-(2-Chloro-pyridin-4-yl)-2-(2-quinolin-2-yl-ethyl)-2,3-dihydro-isoindol-1-one trifluoroacetate] was 6.70 to 7.00; that for `CN1CCN(S(=O)(=O)c2cccc3c2CN(c2cccc4c2CN(CCc2ccc5ccccc5n2)C4=O)CC3)CC1` [Example 321, 4-[8-(4-Methyl-piperazine-1-sulfonyl)-3,4-dihydro-1H-isoquinolin-2-yl]-2-(2-quinolin-2-yl-ethyl)-2,3-dihydro-isoindol-1-one] was 6.30 to 6.70. The compound `CN(C)c1cccc(-c2cccc3c2C(=O)N(CCc2ccc4ccccc4n2)C3)c1` [Example 43, 7-(3-Dimethylamino-phenyl)-2-(2-quinolin-2-yl-ethyl)-2,3-dihydro-isoindol-1-one] gave a negative logarithm of the IC50 (pIC50) of 6.30 to 6.70. As for `O=C1c2c(-c3ccncc3F)ccnc2CN1CCc1ccc2ccccc2n1` [compound 412, 4-(3-Fluoro-pyridin-4-yl)-6-(2-quinolin-2-yl-ethyl)-6,7-dihydro-pyrrolo[3,4-b]pyridin-5-one], the pIC50 is > 7.00. The value for `O=C1c2c(ccnc2-c2ccncc2)CN1CCc1ccc2ccccc2n1` [Example 1, 4-Pyridin-4-yl-2-(2-quinolin-2-yl-ethyl)-1,2-dihydro-pyrrolo[3,4-c]pyridin-3-one; compound with trifluoro-acetic acid] was > 7.00; that for `O=C1c2c(-c3ccoc3)ccnc2CN1CCc1ccc2ccccc2n1` [Example 331, 4-Furan-3-yl-6-(2-quinolin-2-yl-ethyl)-6,7-dihydro-pyrrolo[3,4-b]pyridin-5-one] was > 7.00. Next, `Cc1ccc2c(c1)nc(CCN1Cc3cccc(-c4ccncc4)c3C1=O)n2C` [Example 301, 2-[2-(1,5-Dimethyl-1H-benzoimidazol-2-yl)-ethyl]-7-pyridin-4-yl-2,3-dihydro-isoindol-1-one trifluoroacetate]: > 7.00; `Cn1c2cccc(-c3ccncc3)c2c(=O)n1CCc1ccc2ccccc2n1` [Example 17, 1-Methyl-4-(pyridin-4-yl)-2-(2-(quinolin-2-yl)ethyl)-1,2-dihydroindazol-3-one]: > 7.00. Next, `CCn1cc(-c2cccc3c2CN(CCc2ccc4ccccc4n2)C3=O)cn1` [Example 347, 4-(1-Ethyl-1H-pyrazol-4-yl)-2-(2-quinolin-2-yl-ethyl)-2,3-dihydro-isoindol-1-one]: 6.70 to 7.00; `O=C1c2c(cccc2N2CCSCC2)CN1CCc1ccc2ccccc2n1` [Example 150, 2-(2-Quinolin-2-yl-ethyl)-7-thiomorpholin-4-yl-2,3-dihydro-isoindol-1-one]: > 7.00; `O=C1c2c(cccc2-c2ccc3c(c2)OCO3)CN1CCc1ccc2ccccc2n1` [Example 34, 7-Benzo[1,3]dioxol-5-yl-2-(2-quinolin-2-yl-ethyl)-2,3-dihydro-isoindol-1-one]: 6.70 to 7.00. With `Cn1cc(-c2cccc3c2C(=O)N(CCc2ccc4ccccc4n2)C3)cn1` [Example 70, 7-(1-Methyl-1H-pyrazol-4-yl)-2-(2-quinolin-2-yl-ethyl)-2,3-dihydro-isoindol-1-one], the pIC50 is 6.70 to 7.00.

As for `COc1ccc(-c2ccc(F)cc2)c2c1CN(CCc1ccc3ccccc3n1)C2=O` [Example 187, 7-(4-Fluoro-phenyl)-4-methoxy-2-(2-quinolin-2-yl-ethyl)-2,3-dihydro-isoindol-1-one], the pIC50 is > 7.00. The value for `O=C1c2cccc(-c3cscn3)c2CN1CCc1ccc2ccccc2n1` [Example 355, 2-(2-Quinolin-2-yl-ethyl)-4-thiazol-4-yl-2,3-dihydro-isoindol-1-one] was > 7.00. The value for `COc1cncc(-c2cccc3c2CN(CCc2ccc4ccccc4n2)C3=O)n1` [Example 356, 4-(6-Methoxy-pyrazin-2-yl)-2-(2-quinolin-2-yl-ethyl)-2,3-dihydro-isoindol-1-one] was 6.30 to 6.70; that for `O=C1c2c(-c3ccsc3)ccnc2CN1CCc1ccc2ccccc2n1` [Example 330, 6-(2-Quinolin-2-yl-ethyl)-4-thiophen-3-yl-6,7-dihydro-pyrrolo[3,4-b]pyridin-5-one] was > 7.00; that for `O=C1c2c(cccc2-c2ccsc2)CN1CCc1ccc2ccccc2n1` [Example 25, 2-(2-Quinolin-2-yl-ethyl)-7-thiophen-3-yl-2,3-dihydro-isoindol-1-one] was 6.70 to 7.00.

For `O=C1c2c(cccc2-c2ccncc2)CN1CCc1nc2ccccc2n1CCN1CCOCC1` [Example 292, 2-{2-[1-(2-Morpholin-4-yl-ethyl)-1H-benzoimidazol-2-yl]-ethyl}-7-pyridin-4-yl-2,3-dihydro-isoindol-1-one trifluoroacetate], the pIC50 is > 7.00. The value for `O=C1c2c(cccc2-c2ccc3cc[nH]c3c2)CN1CCc1ccc2ccccc2n1` [Example 64, 7-(1H-Indol-6-yl)-2-(2-quinolin-2-yl-ethyl)-2,3-dihydro-isoindol-1-one] was > 7.00; that for `O=C1c2c(cccc2N2CCOCC2)CN1CCc1cc(Cl)c2ccccc2n1` [Example 117, 2-[2-(4-Chloro-quinolin-2-yl)-ethyl]-7-morpholin-4-yl-2,3-dihydro-isoindol-1-one trifluoroacetate] was 6.70 to 7.00. The value for `O=C1c2c(cccc2N2CCCC3NCCCC32)CN1CCc1ccc2ccccc2n1` (stereo not shown) [Example 279, 7-(Octahydro-[1,5]naphthyridin-1-yl)-2-(2-quinolin-2-yl-ethyl)-2,3-dihydro-isoindol-1-one trifluoroacetate] was 6.30 to 6.70; that for `O=C1c2c(cccc2-c2cccnc2)CN1CCc1ccc2ccccc2n1` [Example 30, 7-Pyridin-3-yl-2-(2-quinolin-2-yl-ethyl)-2,3-dihydro-isoindol-1-one] was > 7.00; that for `COc1ccc(-c2cccc3c2CN(CCc2ccc4ccccc4n2)C3=O)cc1` [Example 203, 4-(4-Methoxy-phenyl)-2-(2-quinolin-2-yl-ethyl)-2,3-dihydro-isoindol-1-one trifluoroacetate] was > 7.00. The value for `O=C1c2c(-c3cncnc3)ccc(F)c2CN1CCc1ccc2ccccc2n1` [compound 443, 4-Fluoro-7-pyrimidin-5-yl-2-[2-(2-quinolyl)ethyl]isoindolin-1-one trifluoroacetate] was > 7.00.

One may read the pIC50 as the IC50 on a negative log10 scale, so that one unit is a factor of ten.
